# Target: Recombinant human Aurora B (amino acids 1-344) (Homo sapiens (Human), UniProt Q96GD4)
# Test: Aurora B Kinase Test (ADP Glo luminescence)
# Type: biochemical
# Details: read-out: AURB-inhibition IC50-value
# Experimental: The activity of the Aurora B kinase protein was determined using the ADP Glo® Luminescence Kinase test (Promega; V9103X).
# Serial Dilution is done in 1:10 steps in 100% DMSO.
# Then 20 μl Kinase detection mix (Detection Buffer #V913B Promega; Kinase Detection Substrate #V914B Promega) were added and incubated for 40 minutes at room temperature.
# The output file of the reader is a csv file that contains the well number and measured RLU. For data evaluation and calculation, the measurement of the negative control was set as 0% ctrl and the measurement of the positive control was set as 100% ctrl. Based on this values the % value for the measurement of each substance concentration was calculated using an Assay Explorer software (Accelrys). Normally, the % ctrl values calculated are between 0% and 100% values but may also occur outside these limits in individual cases based on variability or compound characteristics. The IC50 values were calculated from the % ctrl values using Assay Explorer software. Calculation: [y=(a−d)/(1+(x/c)^b)+d], a=low value, d=high value; x=conc M; c=IC50 M; b=hill; y=% ctrl.
# Chain of Recombinant human Aurora B (amino acids 1-344) (Q96GD4 whole entry, the tested form may be a part): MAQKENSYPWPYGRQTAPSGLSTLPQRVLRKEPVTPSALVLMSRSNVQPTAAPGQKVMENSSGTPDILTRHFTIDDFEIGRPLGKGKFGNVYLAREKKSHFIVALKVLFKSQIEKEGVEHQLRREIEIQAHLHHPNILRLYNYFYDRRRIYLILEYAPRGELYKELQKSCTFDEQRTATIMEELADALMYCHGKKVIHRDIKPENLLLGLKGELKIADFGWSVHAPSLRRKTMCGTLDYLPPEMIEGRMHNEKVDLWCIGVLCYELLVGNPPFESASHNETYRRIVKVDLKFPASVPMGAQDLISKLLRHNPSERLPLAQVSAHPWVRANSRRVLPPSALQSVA
row,Compound,IC50 [µM]
1,"C[C@@H](Oc1cc(-c2ccn(C)n2)cc2nn(C)cc12)[C@H]1CNC(=O)C1 [Example 14, (4R)-4-[(1R)-1-[2-methyl-6-(1-methylpyrazol-3-yl)indazol-4-yl]oxyethyl]-pyrrolidin-2-one]",> 50
2,"C[C@@H](Oc1nc(-c2ccc3cc(C(=O)N(C)C)n(C)c3c2)cc2nn(C)cc12)[C@H]1CNC(=O)C1 [Example 56, N,N,1-trimethyl-6-[2-methyl-4-[(1R)-1-[(3R)-5-oxopyrrol-idin-3-yl]ethoxy]pyrazolo[4,3-c]pyridin-6-yl]indole-2-carboxamide]",> 50

# Target: FLT3 (Homo sapiens (Human), UniProt P36888)
# Test: FLT3 Kinase Test (Z'-LYTE)
# Type: biochemical
# Details: read-out: FLT3-inhibition IC50-value
# Experimental: The activity of FLT3 is measured using the Z′-LYTE™ assay technology from Invitrogen (#PV3191)
# The reaction is started by addition of 2.5 μl of the 4×ATP solution.
# Positive controls are reaction mixtures containing no test compound; negative controls (blanks) are reaction mixtures containing no kinase. As a further control, the phosphopeptide solution is added to wells without kinase (=100% phosphorylation control).
# The reaction is performed for 1 h at room temperature before 5 μl of the development solution is added. After a further incubation for 1 h at room temperature 5 μl of the stop reagent is added.
# The output text file is evaluated in an “MS-Excel-VB-Makro” and “GraphPadPrism” (Version 5) (GraphPad Software Inc.) is used to calculate the results. Data for the inhibition of FLT3 are reported in M. data for the inhibition of the protease are reported in % CTL.
# Chain of FLT3 (P36888 564-958): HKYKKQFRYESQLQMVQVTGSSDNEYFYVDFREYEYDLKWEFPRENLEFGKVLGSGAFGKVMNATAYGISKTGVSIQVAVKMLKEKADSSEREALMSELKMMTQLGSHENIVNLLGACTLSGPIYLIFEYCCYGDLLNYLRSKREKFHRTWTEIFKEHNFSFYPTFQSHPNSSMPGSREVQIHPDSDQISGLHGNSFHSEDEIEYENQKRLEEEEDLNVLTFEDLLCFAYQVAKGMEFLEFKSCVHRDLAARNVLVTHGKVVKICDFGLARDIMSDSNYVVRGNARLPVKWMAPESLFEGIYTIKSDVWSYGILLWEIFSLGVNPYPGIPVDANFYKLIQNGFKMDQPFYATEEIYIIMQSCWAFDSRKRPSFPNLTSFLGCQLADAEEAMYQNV
row,Compound,IC50 [µM]
1,"(4R)-4-[(1R)-1-[6-[1-(Difluoromethyl)imidazol-4-yl]-2-methyl-pyrazolo[4,3-c]pyridin-4-yl]oxyethyl]pyrrolidin-2-one [Example 83]",25.6

# Test system: not listed separately
# Test: Human Liver Microsomal Stability Test
# Type: in vitro ADME
# Details: human liver microsomes; comparison compounds, Example numbers of WO 2011/092128
# Experimental: The metabolic degradation for a specific SYK-inhibitor is performed at 37° C. with pooled human liver microsomes (human liver microsomes are commercially available as “BD UltraPool™” by Corning Life Sciences, Fogostraat 12, 1060 LJ Amsterdam, The Netherlands). The final incubation volume of 100 μl per time point contains TRIS buffer pH 7.6 at RT (0.1 M), magnesium chloride (5 mM), microsomal protein (1 mg/ml) and the test compound at a final concentration of 1 μM.
# Following a short preincubation period at 37° C., the reaction is initiated by addition of beta-nicotinamide adenine dinucleotide phosphate in its reduced form (NADPH, 1 mM) and terminated by transfering an aliquot into solvent after different time points. Additionally, the NADPH-independent degradation is monitored in incubations without NADPH, terminated at the last time point.
# The quenched (terminated) incubations are then pelleted by centrifugation (10000 g, 5 min).
# An aliquot of the supernatant is assayed by LC-MS/MS for the remaining amount of parent compound. The half-life (t½ INVITRO) is determined by the slope of the semilogarithmic plot of the concentration-time profile.
# The intrinsic clearance (CL_[…]) is calculated by considering the amount of protein in the incubation: CL_[…] [μl/min/mg protein]=(Ln 2/(t½INVITRO [min]*protein content [mg/ml]))*1000
# The protein content [mg/ml] was determined with the “Bicinchoninic Acid Kit” of Sigma Aldrich (commercially available).
# The upscaled intrinsic Clearance (CL_UP_INT) is calcuated by considering the liver weight [g liver/kg body weight] and the microsomal recovery [mg protein/g liver]: CL_UP_INT [ml/min/kg]=0.001*CL_[…]*liver weight*microsomal recovery • with microsomal recovery=45 mg protein/g liver • with liver weight=25.7 g liver/kg body weight
# The percent hepatic blood flow (% Qh) is finally calculated by considering the human liver blood flow Q [ml/min/kg]: % Qh [%]=((Q*CL_UP_INT)/(Q+CL_UP_INT)/Q)*100 • with liver blood flow (Q)=20.7 ml/min/kg.
row,Compound,microsomal stability Cl [% Qh]
1,COc1cc(-c2cc3ncccc3c(O[C@H](C)[C@H]3CNC(=O)C3)n2)ccc1OC(F)(F)F [compound 4],33
2,"COc1cc(-c2cc3ncccc3c(O[C@H](C)[C@H]3CNC(=O)C3)n2)cc(OC)c1Cl [Example 8 of WO 2011/092128, reference compound]",77

# Same assay, conditions: human liver microsomes; comparison compounds, Example numbers of WO 2013/014060
row,Compound,microsomal stability Cl [% Qh]
1,Cc1nc2cc(-c3cc(O[C@H](C)[C@H]4CNC(=O)C4)c4cccnc4c3)ccc2n1C [compound 105],64
2,Cc1nc2cc(-c3cc(O[C@H](C)[C@H]4CNC(=O)C4)c4cccnc4c3)ccc2[nH]1 [compound 109],41
3,"COc1cc(-c2cc(O[C@H](C)[C@H]3CNC(=O)C3)c3cccnc3c2)cc(OC)c1OC [Example 2 of WO 2013/014060, reference compound]",81
4,Cc1nc(C)c2cc(-c3cc(O[C@H](C)[C@H]4CNC(=O)C4)c4cccnc4c3)ccc2n1 [compound 107],38
5,COc1cc(-c2cc(O[C@H](C)[C@H]3CNC(=O)C3)c3cccnc3c2)ccc1C(F)(F)F [compound 102],54
6,Cc1nc2ccc(-c3cc(O[C@H](C)[C@H]4CNC(=O)C4)c4cccnc4c3)cc2s1 [compound 85],49

# Same assay, conditions: human liver microsomes; compounds of the invention (own Example numbers)
row,Compound,microsomal stability Cl [% Qh]
1,"COc1cc(-c2cc3nn(C)cc3c(O[C@H](C)[C@H]3CNC(=O)C3)n2)cc(OC)c1OC [Example 52, (4R)-4-[(1R)-1-[2-methyl-6-(3,4,5-trimethoxyphenyl)-pyrazolo[4,3-c]pyridin-4-yl]oxyethyl]pyrrolidin-2-one]",<23
2,"C[C@@H](Oc1nc(-c2ccc3cnn(C)c3c2)cc2nn(C)cc12)[C@H]1CNC(=O)C1 [Example 72, (4R)-4-[(1R)-1-[2-methyl-6-(1-methylindazol-6-yl)pyrazolo[4,3-c]pyridin-4-yl]oxyethyl]pyrrolidin-2-one]",<23
3,"C[C@@H](Oc1cc(-c2ccc3c(cnn3C)c2)cc2nn(C)cc12)[C@H]1CNC(=O)C1 [Example 28, (4R)-4-[(1R)-1-[2-methyl-6-(1-methylindazol-5-yl)indazol-4-yl]oxyethyl]pyrrolidin-2-one]",<23
4,"C[C@@H](Oc1cc(-c2cnn(C(C)(C)C)c2)cc2nn(C)cc12)[C@H]1CNC(=O)C1 [Example 18, (4R)-4-[(1R)-1-[6-(1-tert-butylpyrazol-4-yl)-2-methyl-indazol-4-yl]oxyethyl]pyrrolidin-2-one]",<23
5,"C[C@@H](Oc1nc(-c2ccc3c(cnn3C)c2)cc2nn(C)cc12)[C@H]1CNC(=O)C1 [Example 62, (4R)-4-[(1R)-1-[2-methyl-6-(1-methylindazol-5-yl)pyrazolo[4,3-c]pyridin-4-yl]oxyethyl]pyrrolidin-2-one]",<23
6,"C[C@@H](Oc1cc(-c2ccc3c(c2)c(N)nn3C)cc2nn(C)cc12)[C@H]1CNC(=O)C1 [Example 36, (4R)-4-[(1R)-1-[6-(3-amino-1-methyl-indazol-5-yl)-2-methyl-indazol-4-yl]oxyethyl]pyrrolidin-2-one]",<23

# Same assay, conditions: human liver microsomes; percent hepatic blood flow
row,Compound,microsomal stability Cl [% Qh]
1,"C[C@@H](Oc1cc(-c2ccc(N3CCN(C)CC3)cc2)cc2nn(C)cc12)[C@H]1CNC(=O)C1 [Example 26, (4R)-4-[(1R)-1-[2-methyl-6-[4-(4-methylpiperazin-1-yl)phenyl]indazol-4-yl]oxyethyl]pyrrolidin-2-one]",<23
2,C[C@@H](Oc1nc(-c2ccc(N3CCOCC3)nc2)cc2ncccc12)[C@H]1CNC(=O)C1 [45 of WO 2011/092128],53
3,C[C@@H](Oc1cc(-c2ccccn2)cc2ncccc12)[C@H]1CNC(=O)C1 [6 of WO 2013/014060],24
4,C[C@@H](Oc1cc(-c2ccc(C(=O)N3CCN(C)CC3)cc2)cc2ncccc12)[C@H]1CNC(=O)C1 [76 of WO 2013/014060],<23
5,"C[C@@H](Oc1nc(-c2ccc(C(F)F)nc2)cc2nn(C)cc12)[C@H]1CNC(=O)C1 [Example 51, (4R)-4-[(1R)-1-[6-[6-(difluoromethyl)-3-pyridyl]-2-methyl-pyrazolo[4,3-c]pyridin-4-yl]oxyethyl]pyrrolidin-2-one]",<23
6,"C[C@@H](Oc1cc(-c2ccc(N3CCOCC3)cc2)cc2nn(C)cc12)[C@H]1CNC(=O)C1 [Example 22, (4R)-4-[(1R)-1-[2-Methyl-6-(4-morpholinophenyl)indazol-4-yl]oxyethyl]-pyrrolidin-2-one]",25
7,C[C@@H](Oc1cc(-c2ccc3c(c2)CNCC3)cc2ncccc12)[C@H]1CNC(=O)C1 [101 of WO 2013/014060],<23
8,C[C@@H](Oc1cc(-c2ccc(CN3CCOCC3)cc2)cc2ncccc12)[C@H]1CNC(=O)C1 [43 of WO 2013/014060],<23
9,"C[C@@H](Oc1nc(-c2ccc(N3CCN(C)CC3)cc2)cc2nn(C)cc12)[C@H]1CNC(=O)C1 [Example 67, (4R)-4-[(1R)-1-[2-methyl-6-[4-(4-methylpiperazin-1-yl)phenyl]pyrazolo[4,3-c]pyridin-4-yl]oxyethyl]-pyrrolidin-2-one]",34
10,"COc1ccc(-c2cc3nn(C)cc3c(O[C@H](C)[C@H]3CNC(=O)C3)n2)cn1 [Example 59, (4R)-4-[(1R)-1-[6-(6-methoxy-3-pyridyl)-2-methyl-pyrazolo-[4,3-c]pyridin-4-yl]oxyethyl]-pyrrolidin-2-one]",<23
11,"CC(C)Oc1ccc(-c2cc(O[C@H](C)[C@H]3CNC(=O)C3)c3cn(C)nc3c2)cn1 [Example 27, (4R)-4-[(1R)-1-[6-(6-isopropoxy-3-pyridyl)-2-methyl-indazol-4-yl]oxyethyl]pyrrolidin-2-one]",<23
